Active and inactive are the calls of the source. No cut-off for these calls is given here.
What was measured:
PC-12 [1] = assay: Neuroprotective activity against amyloid beta (25 to 35)-induced rat PC12 cells assessed as reduction in amyloid beta (25 to 35)-induced apoptosis rate at 15 uM incubated for 15 mins by Annexin V-FITC/PI staining based flow cytometric analysis (reference value: 2.9%); assay type: functional; design: scale not given: the % may be the effect or the level left; conditions: 0.25 h
PC-12 [2] = assay: Neuroprotective activity against amyloid beta (25 to 35)-induced rat PC12 cells assessed as decrease in intracellular ROS level at 7.5 uM incubated for 24 hrs by DCFH-DA staining based flow cytometry assay; assay type: functional, cell-based
PC-12 [3] = assay: Neuroprotective activity against amyloid beta (25 to 35)-induced rat PC12 cells assessed as decrease in total tau protein expression level at 15 uM preincubated for 30 mins followed by amyloid beta (25 to 35) addition and measured after 24 hrs by western blot assay; assay type: functional, cell-based; conditions: time 24.5 hrs
PC-12 [4] = assay: Neuroprotective activity against amyloid beta (25 to 35)-induced rat PC12 cells assessed as decrease in tau hyperphosphorylation at Thr181 at 15 uM preincubated for 30 mins followed by amyloid beta (25 to 35) addition and measured after 24 hrs by western blot assay; assay type: functional, cell-based; conditions: time 24.5 hrs

Compound: CC1(C)CCC[C@](C)([C@H]2CC[C@]3(C)[C@@H]2[C@H](O)C[C@@H]2[C@@]4(C)CC[C@H](O)C(C)(C)[C@@H]4CC[C@]23C)O1 [PANAXADIOL]
- Activity (PC-12 [1]): 5.4%
- Activity (PC-12 [2]): Active
- Activity (PC-12 [3]): Active
- Activity (PC-12 [4]): Active

Reference: ChEMBL document CHEMBL5247626, “In vitro and in vivo biological evaluation of newly synthesized multi-target 20(R)-panaxadiol derivatives for treating Alzheimer's disease” (Eur J Med Chem, 2022)
